Measurements taken from ChEMBL document CHEMBL5303573, “Mapping human microbiome drug metabolism by gut bacteria and their genes” (Nature, 2019).

Tests used:
[1] = The drug is tested on Anaerococcus hydrogenalis strain: DSM7454 for biotransformation. The drug concentrations were measured before and after a 12-h incubation by liquid-chromatography-coupled mass spectrometry (LC–MS); settings: 2 µM
[2] = The drug is tested on Eubacterium ventriosum strain: ATCC27560 for biotransformation. The drug concentrations were measured before and after a 12-h incubation by liquid-chromatography-coupled mass spectrometry (LC–MS); format: ADME; set-up: dose 2 uM, timepoint 0 vs 12 hours; settings: 2 µM
[3] = The drug is tested on Clostridium sporogenes strain: ATCC15579 for biotransformation. The drug concentrations were measured before and after a 12-h incubation by liquid-chromatography-coupled mass spectrometry (LC–MS); settings: 2 µM
[4] = The drug is tested on Ruminococcus gnavus strain: ATCC29149 for biotransformation. The drug concentrations were measured before and after a 12-h incubation by liquid-chromatography-coupled mass spectrometry (LC–MS); settings: mediterraneibacter gnavus, 2 µM
[5] = The drug is tested on Ruminococcus lactaris strain: ATCC29176 for biotransformation. The drug concentrations were measured before and after a 12-h incubation by liquid-chromatography-coupled mass spectrometry (LC–MS); settings: 2 µM
[6] = bacteroides thetaiotaomicron, 12 h, 2 µM
Description: The drug is tested on Bacteroides thetaiotaomicron strain: VPI-5482 for biotransformation. The drug concentrations were measured before and after a 12-h incubation by liquid-chromatography-coupled mass spectrometry (LC–MS)

[7] = The drug is tested on Blautia luti strain: DSM14534 for biotransformation. The drug concentrations were measured before and after a 12-h incubation by liquid-chromatography-coupled mass spectrometry (LC–MS); format: ADME; set-up: dose 2 uM, timepoint 0 vs 12 hours; settings: 2 µM
[8] = The drug is tested on Edwardsiella tarda strain: ATCC23685 for biotransformation. The drug concentrations were measured before and after a 12-h incubation by liquid-chromatography-coupled mass spectrometry (LC–MS); settings: 2 µM
[9] = The drug is tested on Bacteroides cellulosilyticus strain: DSM14838 for biotransformation. The drug concentrations were measured before and after a 12-h incubation by liquid-chromatography-coupled mass spectrometry (LC–MS); settings: 2 µM
[10] = The drug is tested on Bacteroides caccae strain: ATCC43185 for biotransformation. The drug concentrations were measured before and after a 12-h incubation by liquid-chromatography-coupled mass spectrometry (LC–MS); settings: 2 µM
[11] = The drug is tested on Clostridium symbiosum strain: ATCC14940 for biotransformation. The drug concentrations were measured before and after a 12-h incubation by liquid-chromatography-coupled mass spectrometry (LC–MS); settings: 2 µM
[12] = segatella copri, 12 h, 2 µM
Description: The drug is tested on Prevotella copri strain: DSM18205 for biotransformation. The drug concentrations were measured before and after a 12-h incubation by liquid-chromatography-coupled mass spectrometry (LC–MS)

[13] = The drug is tested on Collinsella aerofaciens strain: ATCC25986 for biotransformation. The drug concentrations were measured before and after a 12-h incubation by liquid-chromatography-coupled mass spectrometry (LC–MS); settings: 2 µM
[14] = The drug is tested on Providencia rettgeri strain: DSM1131 for biotransformation. The drug concentrations were measured before and after a 12-h incubation by liquid-chromatography-coupled mass spectrometry (LC–MS); format: ADME; set-up: dose 2 uM, timepoint 0 vs 12 hours; settings: 2 µM
[15] = The drug is tested on Dorea formicigenerans strain: ATCC27755 for biotransformation. The drug concentrations were measured before and after a 12-h incubation by liquid-chromatography-coupled mass spectrometry (LC–MS); settings: 2 µM
[16] = roseburia intestinalis, 12 h, 2 µM
Description: The drug is tested on Roseburia intestinalis strain: L1-82 for biotransformation. The drug concentrations were measured before and after a 12-h incubation by liquid-chromatography-coupled mass spectrometry (LC–MS)

[17] = The drug is tested on Bacteroides ovatus strain: ATCC8483 for biotransformation. The drug concentrations were measured before and after a 12-h incubation by liquid-chromatography-coupled mass spectrometry (LC–MS); settings: 2 µM
[18] = bacteroides fragilis, 12 h, 2 µM
Description: The drug is tested on Bacteroides fragilis strain: NCTC 9343 for biotransformation. The drug concentrations were measured before and after a 12-h incubation by liquid-chromatography-coupled mass spectrometry (LC–MS)

[19] = The drug is tested on Bacteroides sp. WH2 strain: WH2 for biotransformation. The drug concentrations were measured before and after a 12-h incubation by liquid-chromatography-coupled mass spectrometry (LC–MS); settings: bacteroides sp. wh2, 12 h, 2 µM
[20] = The drug is tested on Bacteroides pectinophilus strain: ATCC43243 for biotransformation. The drug concentrations were measured before and after a 12-h incubation by liquid-chromatography-coupled mass spectrometry (LC–MS); settings: 2 µM
[21] = The drug is tested on Bacteroides fragilis strain: HMW610 for biotransformation. The drug concentrations were measured before and after a 12-h incubation by liquid-chromatography-coupled mass spectrometry (LC–MS); settings: 2 µM
[22] = The drug is tested on Subdoligranulum variabile strain: DSM15176 for biotransformation. The drug concentrations were measured before and after a 12-h incubation by liquid-chromatography-coupled mass spectrometry (LC–MS); settings: 2 µM
[23] = anaerostipes sp., 12 h, 2 µM
Description: The drug is tested on Anaerostipes sp. strain: fecal isolate for biotransformation. The drug concentrations were measured before and after a 12-h incubation by liquid-chromatography-coupled mass spectrometry (LC–MS)

[24] = The drug is tested on Enterococcus faecalis strain: V583 for biotransformation. The drug concentrations were measured before and after a 12-h incubation by liquid-chromatography-coupled mass spectrometry (LC–MS); settings: 2 µM
[25] = The drug is tested on Clostridium scindens strain: ATCC35704 for biotransformation. The drug concentrations were measured before and after a 12-h incubation by liquid-chromatography-coupled mass spectrometry (LC–MS); settings: 2 µM
[26] = The drug is tested on Alistipes indistinctus strain: DSM22520 for biotransformation. The drug concentrations were measured before and after a 12-h incubation by liquid-chromatography-coupled mass spectrometry (LC–MS); settings: 2 µM
[27] = bacteroides intestinalis, 12 h, 2 µM
Description: The drug is tested on Bacteroides intestinalis strain: DSM17393 for biotransformation. The drug concentrations were measured before and after a 12-h incubation by liquid-chromatography-coupled mass spectrometry (LC–MS)

[28] = The drug is tested on Bacteroides xylanisolvens strain: DSM18836 for biotransformation. The drug concentrations were measured before and after a 12-h incubation by liquid-chromatography-coupled mass spectrometry (LC–MS); settings: 2 µM
[29] = The drug is tested on Escherichia coli strain: BW25113 for biotransformation. The drug concentrations were measured before and after a 12-h incubation by liquid-chromatography-coupled mass spectrometry (LC–MS); settings: 2 µM
[30] = parabacteroides johnsonii, 12 h, 2 µM
Description: The drug is tested on Parabacteroides johnsonii strain: DSM18315 for biotransformation. The drug concentrations were measured before and after a 12-h incubation by liquid-chromatography-coupled mass spectrometry (LC–MS)

[31] = The drug is tested on Bifidobacterium breve strain: DSM20213 for biotransformation. The drug concentrations were measured before and after a 12-h incubation by liquid-chromatography-coupled mass spectrometry (LC–MS); settings: 2 µM
[32] = enterocloster bolteae, 12 h, 2 µM
Description: The drug is tested on Clostridium bolteae strain: ATCCBAA-613 for biotransformation. The drug concentrations were measured before and after a 12-h incubation by liquid-chromatography-coupled mass spectrometry (LC–MS)

[33] = The drug is tested on Parabacteroides merdae strain: ATCC43184 for biotransformation. The drug concentrations were measured before and after a 12-h incubation by liquid-chromatography-coupled mass spectrometry (LC–MS); settings: 2 µM
[34] = The drug is tested on Collinsella intestinalis strain: DSM13280 for biotransformation. The drug concentrations were measured before and after a 12-h incubation by liquid-chromatography-coupled mass spectrometry (LC–MS); settings: 2 µM
[35] = The drug is tested on Eubacterium rectale strain: ATCC33656 for biotransformation. The drug concentrations were measured before and after a 12-h incubation by liquid-chromatography-coupled mass spectrometry (LC–MS); settings: agathobacter rectalis, 2 µM
[36] = The drug is tested on Bacteroides fragilis strain: ATCC43859 for biotransformation. The drug concentrations were measured before and after a 12-h incubation by liquid-chromatography-coupled mass spectrometry (LC–MS); settings: 2 µM
[37] = The drug is tested on Bacteroides finegoldii strain: DSM17565 for biotransformation. The drug concentrations were measured before and after a 12-h incubation by liquid-chromatography-coupled mass spectrometry (LC–MS); settings: 2 µM
[38] = parabacteroides distasonis, 12 h, 2 µM
Description: The drug is tested on Parabacteroides distasonis strain: ATCC8503 for biotransformation. The drug concentrations were measured before and after a 12-h incubation by liquid-chromatography-coupled mass spectrometry (LC–MS)

[39] = The drug is tested on Clostridium asparagiforme strain: DSM15981 for biotransformation. The drug concentrations were measured before and after a 12-h incubation by liquid-chromatography-coupled mass spectrometry (LC–MS); format: ADME; set-up: dose 2 uM, timepoint 0 vs 12 hours; settings: enterocloster asparagiformis, 2 µM
[40] = The drug is tested on Ruminococcus torques strain: ATCC27756 for biotransformation. The drug concentrations were measured before and after a 12-h incubation by liquid-chromatography-coupled mass spectrometry (LC–MS); format: ADME; set-up: dose 2 uM, timepoint 0 vs 12 hours; settings: 2 µM

Structure (SMILES): Cc1ccc(-c2cc(C(F)(F)F)nn2-c2ccc(S(N)(=O)=O)cc2)cc1 [CELECOXIB]
- Bacterial Biotransformation [1]: Compound NOT metabolized
- Bacterial Biotransformation [2]: Compound NOT metabolized
- Bacterial Biotransformation [3]: Compound metabolized
- Bacterial Biotransformation [4]: Compound NOT metabolized
- Bacterial Biotransformation [5]: Compound NOT metabolized
- Bacterial Biotransformation [6]: Compound NOT metabolized
- Bacterial Biotransformation [7]: Compound NOT metabolized
- Bacterial Biotransformation [8]: Compound NOT metabolized
- Bacterial Biotransformation [9]: Compound NOT metabolized
- Bacterial Biotransformation [10]: Compound NOT metabolized
- Bacterial Biotransformation [11]: Compound NOT metabolized
- Bacterial Biotransformation [12]: Compound metabolized
- Bacterial Biotransformation [13]: Compound NOT metabolized
- Bacterial Biotransformation [14]: Compound NOT metabolized
- Bacterial Biotransformation [15]: Compound NOT metabolized
- Bacterial Biotransformation [16]: Compound NOT metabolized
- Bacterial Biotransformation [17]: Compound NOT metabolized
- Bacterial Biotransformation [18]: Compound NOT metabolized
- Bacterial Biotransformation [19]: Compound NOT metabolized
- Bacterial Biotransformation [20]: Compound NOT metabolized
- Bacterial Biotransformation [21]: Compound NOT metabolized
- Bacterial Biotransformation [22]: Compound NOT metabolized
- Bacterial Biotransformation [23]: Compound NOT metabolized
- Bacterial Biotransformation [24]: Compound NOT metabolized
- Bacterial Biotransformation [25]: Compound NOT metabolized
- Bacterial Biotransformation [26]: Compound NOT metabolized
- Bacterial Biotransformation [27]: Compound NOT metabolized
- Bacterial Biotransformation [28]: Compound NOT metabolized
- Bacterial Biotransformation [29]: Compound NOT metabolized
- Bacterial Biotransformation [30]: Compound NOT metabolized
- Bacterial Biotransformation [31]: Compound NOT metabolized
- Bacterial Biotransformation [32]: Compound NOT metabolized
- Bacterial Biotransformation [33]: Compound NOT metabolized
- Bacterial Biotransformation [34]: Compound NOT metabolized
- Bacterial Biotransformation [35]: Compound NOT metabolized
- Bacterial Biotransformation [36]: Compound NOT metabolized
- Bacterial Biotransformation [37]: Compound NOT metabolized
- Bacterial Biotransformation [38]: Compound NOT metabolized
- Bacterial Biotransformation [39]: Compound NOT metabolized
- Bacterial Biotransformation [40]: Compound NOT metabolized
